In patent US12521440B2, “Degradation of bruton's tyrosine kinase (BTK) by conjugation of BTK inhibitors with E3 ligase ligand and methods of use” (BeOne Medicines I GmbH, priority 2021, dated 2026):
pIC50: −log10 of the molar value.

How the values were obtained:
BTK = target: T1, BTK (Homo sapiens, UniProt Q06187); assay: BTK degradation in TMD-8 cells (HTRF assay); format: cell-based; settings: 6 h treatment, HTRF BTK degradation IC50 (DC50)
T1 construct: endogenous in cells; host or cells: TMD-8 cells
Outline: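 TMD-8 cells exposed to 8 concentrations (6-fold serial dilution from 1 mM 500× DMSO stocks; 0.2% DMSO final) for 6 h. Lysates incubated overnight at room temperature with HTRF antibodies, read at 665/620 nm. DC50 from four-parameter logistic fit of percent inhibition.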

HEK-293 cells = assay: HEK-293 cytotoxicity detection (CellTiter-Glo); format: cell-based; settings: Homo sapiens, 72 h incubation, read-out: HEK293
Outline: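 HEK-293 cells exposed 72 h to 8 compound concentrations (4-fold dilution series, 0.2% DMSO). Viability read as CellTiter-Glo luminescence; IC50 from four-parameter logistic fit of percent inhibition.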

T1 sequence (Q06187 whole entry): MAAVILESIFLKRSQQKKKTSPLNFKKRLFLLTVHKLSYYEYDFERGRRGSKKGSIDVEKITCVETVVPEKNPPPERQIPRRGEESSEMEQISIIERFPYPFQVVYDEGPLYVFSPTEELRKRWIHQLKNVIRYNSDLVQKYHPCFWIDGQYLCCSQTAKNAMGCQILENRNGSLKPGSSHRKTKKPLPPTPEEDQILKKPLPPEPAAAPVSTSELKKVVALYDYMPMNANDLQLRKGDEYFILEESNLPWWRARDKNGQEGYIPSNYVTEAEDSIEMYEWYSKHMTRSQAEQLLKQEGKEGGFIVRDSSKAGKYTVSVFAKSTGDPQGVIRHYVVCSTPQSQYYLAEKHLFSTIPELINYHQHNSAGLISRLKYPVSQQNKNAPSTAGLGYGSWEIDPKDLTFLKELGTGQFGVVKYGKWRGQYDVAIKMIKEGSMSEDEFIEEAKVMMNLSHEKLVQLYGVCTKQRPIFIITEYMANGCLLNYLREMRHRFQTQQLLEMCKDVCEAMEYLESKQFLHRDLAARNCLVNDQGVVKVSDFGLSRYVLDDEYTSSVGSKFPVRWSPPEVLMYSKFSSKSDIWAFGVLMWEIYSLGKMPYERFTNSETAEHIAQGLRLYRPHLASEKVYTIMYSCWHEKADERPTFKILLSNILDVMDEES

Cc1cc(-c2cc(Nc3ccc(N4CCN(CC5CCN(c6ccc(N7CCC(=O)NC7=O)c(C)c6)CC5)CC4)cn3)ncn2)ccc1[C@@H](C)NC(=O)c1nc(C(C)(C)C)no1 [Example 18, (R)-3-(tert-butyl)-N-(1-(4-(6-((5-(4-((1-(4-(2,4-dioxotetrahydropyrimidin-1(2H)-yl)-3-methylphenyl)piperidin-4-yl)methyl)piperazin-1-yl)pyridin-2-yl)amino)pyrimidin-4-yl)-2-methylphenyl)ethyl)-1,2,4-oxadiazole-5-carboxamide]
DC50 (BTK): 1.15 nM
pIC50 (HEK-293 cells): < 5.00

Cc1cc(-c2ccnc(Nc3ccc(N4CCN(CC5CCN(c6ccc(N7CCC(=O)NC7=O)cc6)CC5)CC4)cn3)n2)ccc1[C@@H](C)NC(=O)c1nc(C(C)(C)C)no1 [Example 67, (R)-3-(tert-butyl)-N-(1-(4-(2-((5-(4-((1-(4-(2,4-dioxotetrahydropyrimidin-1(2H)-yl)phenyl)piperidin-4-yl)methyl)piperazin-1-yl)pyridin-2-yl)amino)pyrimidin-4-yl)-2-methylphenyl)ethyl)-1,2,4-oxadiazole-5-carboxamide]
DC50 (BTK): 10.6 nM
pIC50 (HEK-293 cells): < 5.00

Cc1cc(-c2cc(Nc3ccc(N4CC5(CCN(CC6CCN(c7ccc(N8CCC(=O)NC8=O)cc7)CC6)CC5)C4)cn3)ncn2)ccc1[C@@H](C)NC(=O)c1nc(C(C)(C)C)no1 [Example 33, (R)-3-(tert-butyl)-N-(1-(4-(6-((5-(7-((1-(4-(2,4-dioxotetrahydropyrimidin-1(2H)-yl)phenyl)piperidin-4-yl)methyl)-2,7-diazaspiro [3.5]nonan-2-yl)pyridin-2-yl)amino)pyrimidin-4-yl)-2-methylphenyl)ethyl)-1,2,4-oxadiazole-5-carboxamide]
DC50 (BTK): 1.3 nM
pIC50 (HEK-293 cells): < 5.00

Cc1cc(-c2cc(Nc3ccc(N4CCN(CC5CCN(c6ccc(N7CCC(=O)NC7=O)cc6)CC5)CC4)nc3)ncn2)ccc1[C@@H](C)NC(=O)c1nc(C(C)(C)C)no1 [Example 13, (R)-3-(tert-butyl)-N-(1-(4-(6-((6-(4-((1-(4-(2,4-dioxotetrahydropyrimidin-1(2H)-yl)phenyl)piperidin-4-yl)methyl)piperazin-1-yl)pyridin-3-yl)amino)pyrimidin-4-yl)-2-methylphenyl)ethyl)-1,2,4-oxadiazole-5-carboxamide]
DC50 (BTK): 32.7 nM
pIC50 (HEK-293 cells): < 5.00
